Assay [1] relates to Papio papio. Description: Duration of protection for abolition of myoclonic responses to photic stimulation in the baboon (Papio papio) at 0.2 mg/kg; Duration of protection ranges from 180-300 min. The assay is classed as functional.
Assay [2] is filed under the species Mus musculus. Description: Evaluated for audiogenic seizures in DBA/ 2 mice, in the protection against paroxysimal EEG at an interval of 30 minutes. The following applies: 0.5 h. The assay is classed as functional.
Assay [3] concerns the target Adenylate cyclase type 5 (Homo sapiens) (UniProt O95622). Description: Compound was evaluated for the elicited effect on adenylate cyclase activity in homogenates of carp retina at 10 uM. The format is functional, tissue-based. The following applies: Cyprinus carpio.
For assay [4], the species on record is Mus musculus. Description: Evaluated for audiogenic seizures in DBA/ 2 mice, in the protection against paroxysimal EEG at an interval of 20 minutes. The format is functional.
Assay [5] concerns Papio papio. Description: Duration of protection for abolition of myoclonic responses to photic stimulation in the baboon (Papio papio) at 0.5 mg/kg; Duration of protection ranges from 30-45 min. The format is functional.
The species entered for assay [6] is Mus musculus. Description: Evaluated for audiogenic seizures in DBA/ 2 mice, in the protection against paroxysimal EEG at an interval of 60 minutes. The assay is classed as functional. The following applies: 1 h.
Assay [7] has as its system Papio papio. Description: Duration of protection for abolition of myoclonic responses to photic stimulation in the baboon (Papio papio) at 0.2 mg/kg. The format is functional.

For four compounds, Duration, ED50 and Response results are on record in ChEMBL document CHEMBL1121670, “Aporphines. 34. (-)-2,10,11-Trihydroxy-N-n-propylnoraporphine, a novel dopaminergic aporphine alkaloid with anticonvulsant activity” (1981).

Adenylate cyclase type 5 (Homo sapiens), sequence (O95622 whole entry, looked up): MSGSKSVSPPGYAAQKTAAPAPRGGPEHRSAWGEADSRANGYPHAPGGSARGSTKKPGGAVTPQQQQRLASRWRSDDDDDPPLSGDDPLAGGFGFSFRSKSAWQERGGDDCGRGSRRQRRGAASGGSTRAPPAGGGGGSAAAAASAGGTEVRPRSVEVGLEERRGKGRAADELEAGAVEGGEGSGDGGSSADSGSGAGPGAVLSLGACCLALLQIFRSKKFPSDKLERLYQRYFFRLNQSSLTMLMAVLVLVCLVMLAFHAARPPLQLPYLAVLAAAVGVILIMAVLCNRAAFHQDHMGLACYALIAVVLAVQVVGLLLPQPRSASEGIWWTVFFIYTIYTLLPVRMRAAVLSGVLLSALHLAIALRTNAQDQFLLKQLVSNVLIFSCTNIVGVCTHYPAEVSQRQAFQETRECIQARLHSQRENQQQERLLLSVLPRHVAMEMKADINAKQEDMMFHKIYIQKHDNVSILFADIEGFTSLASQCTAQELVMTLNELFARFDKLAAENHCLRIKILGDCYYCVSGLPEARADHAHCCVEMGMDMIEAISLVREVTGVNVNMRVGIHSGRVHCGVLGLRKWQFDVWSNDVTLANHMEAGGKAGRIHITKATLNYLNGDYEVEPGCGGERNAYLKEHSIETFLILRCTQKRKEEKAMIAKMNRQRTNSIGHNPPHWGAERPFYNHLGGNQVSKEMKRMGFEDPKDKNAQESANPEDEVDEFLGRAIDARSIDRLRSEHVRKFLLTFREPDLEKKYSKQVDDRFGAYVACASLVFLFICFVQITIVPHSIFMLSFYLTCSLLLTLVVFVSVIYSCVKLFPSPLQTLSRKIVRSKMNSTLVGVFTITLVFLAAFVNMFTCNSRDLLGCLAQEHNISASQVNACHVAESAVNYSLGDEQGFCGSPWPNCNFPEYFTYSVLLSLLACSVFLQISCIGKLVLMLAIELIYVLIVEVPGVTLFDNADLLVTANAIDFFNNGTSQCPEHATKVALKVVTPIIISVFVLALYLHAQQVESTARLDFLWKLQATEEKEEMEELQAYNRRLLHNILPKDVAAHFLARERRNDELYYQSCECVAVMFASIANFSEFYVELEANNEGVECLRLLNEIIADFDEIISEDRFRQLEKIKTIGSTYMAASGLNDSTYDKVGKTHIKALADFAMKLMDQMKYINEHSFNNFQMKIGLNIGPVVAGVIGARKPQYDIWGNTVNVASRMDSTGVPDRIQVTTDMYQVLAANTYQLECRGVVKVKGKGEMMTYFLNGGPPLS

On to `CCCN1CCc2cc(O)cc3c2[C@H]1Cc1ccc(O)c(O)c1-3`, for which, in assay [1], the Duration was determined as 180 min. Further, it took a dose of 0.72 mg/kg to reach the 50% effect level in assay [2] (ED50). The Response in assay [3] was determined as 43.4%.
As for `CN1CCc2cccc3c2[C@H]1Cc1ccc(O)c(O)c1-3` [APOMORPHINE], in assay [4], the ED50 turned out to be 0.7 mg/kg. Also, the Duration in assay [5] worked out at 30 min.
On to `CC(C)C[C@H]1C(=O)N2CCC[C@H]2[C@]2(O)O[C@](NC(=O)[C@@H]3C=C4c5cccc6[nH]c(Br)c(c56)C[C@H]4N(C)C3)(C(C)C)C(=O)N12` [BROMOCRIPTINE], for which, in assay [6], the ED50 was 5 mg/kg.
As for `CCCN1CCc2cccc3c2[C@H]1Cc1ccc(O)c(O)c1-3` [R-N-PROPYLNORAPOMORPHINE], the Duration in assay [7] is on record as 180 min. For the same compound, in assay [2], the ED50 is 0.075 mg/kg.
